Like-named read-outs stand apart in the source and are kept apart here.
Key:
human Flt-3 = target: T1, human Flt-3 (Homo sapiens, UniProt P36888); assay: Flt3 kinase inhibition, GST-Flt-3, 33P incorporation into poly(Glu,Tyr); type: biochemical
T1 construct: expressing the amino acid region amino acids 563-993 of the cytoplasmic kinase domain of human Flt-3; made in house; host or cells: Sf9 (baculovirus)
T1 sequence (P36888 563-993): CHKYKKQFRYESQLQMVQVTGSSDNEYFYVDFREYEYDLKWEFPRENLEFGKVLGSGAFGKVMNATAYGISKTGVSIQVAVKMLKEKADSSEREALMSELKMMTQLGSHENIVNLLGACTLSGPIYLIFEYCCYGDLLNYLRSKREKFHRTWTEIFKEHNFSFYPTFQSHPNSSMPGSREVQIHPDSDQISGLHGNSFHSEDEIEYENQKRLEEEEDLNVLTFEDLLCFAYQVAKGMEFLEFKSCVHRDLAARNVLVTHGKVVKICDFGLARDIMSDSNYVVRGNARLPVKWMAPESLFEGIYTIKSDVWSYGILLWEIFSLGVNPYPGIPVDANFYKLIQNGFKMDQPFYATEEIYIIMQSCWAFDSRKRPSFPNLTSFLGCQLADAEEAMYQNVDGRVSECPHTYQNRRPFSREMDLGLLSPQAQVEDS
Procedure: (§1) The compounds to be tested are then diluted in culture medium (without FCS, with 0.1% bovine serum albumin) and added to the cells. (Controls comprise medium without test compounds). After two hours' incubation at 37° C., recombinant VEGF is added; the final VEGF concentration is 20 ng/ml). After a further five minutes incubation at 37° C., the cells are washed twice with ice-cold PBS (phosphate-buffered saline) and immediately lysed in 100 μl lysis buffer per well. The lysates are then centrifuged to remove the cell nuclei, and the protein concentrations of the supernatants are determined using a commercial protein assay (BIORAD). The lysates can then either be immediately used or, if necessary, stored at −20° C. A sandwich ELISA is carried out to measure the VEGF-R2 phosphorylation: a monoclonal antibody to VEGF-R2 (for example Mab 1495.12.14; ProQinase, Freiburg, Germany) is immobilized on black ELISA plates (OptiPlate™ HTRF-96 from Packard). The plates are then washed and the remaining free protein-binding sites are saturated with 3% TopBlock® (Juro, Cat. # TB232010) in phosphate buffered saline with Tween 20® (polyoxyethylen(20)-sorbitane monolaurate, ICI/Uniquema) (PBST). The cell lysates (20 μg protein per well) are then incubated in these plates overnight at 4° C. together with an antiphosphotyrosine antibody coupled with alkaline phosphatase (PY20:AP from Zymed). […] The luminescence is measured in a Packard Top Count Microplate Scintillation Counter. The difference between the signal of the positive control (stimulated with VEGF) and that of the negative control (not stimulated with VEGF) corresponds to VEGF-induced VEGF-R2 phosphorylation (=100%). The activity of the tested substances is calculated as percent inhibition of VEGF-induced VEGF-R2 phosphorylation, wherein the concentration of substance that induces half the maximum inhibition is defined as the IC50 (inhibitory dose for 50% inhibition). […] Flt3 kinase inhibition is determined as follows: The baculovirus donor vector pFbacG01 (GIBCO) is used to generate a recombinant baculovirus expressing the amino acid region amino acids 563-993 of the cytoplasmic kinase domain of human Flt-3. The coding sequence for the cytoplasmic domain of Flt-3 is amplified by PCR from human c-DNA libraries (Clontech). The amplified DNA fragments and the pFbacG01 vector are made compatible for ligation by digestion with BamH1 and HindIII. Ligation of these DNA fragments results in the baculovirus donor plasmid Flt-3(1.1). The production of the viruses, the expression of proteins in Sf9 cells and the purification of the GST-fused proteins are performed as follows: Production of virus: Transfer vector (pFbacG01-Flt-3) containing the Flt-3 kinase domain is transfected into the DH10Bac cell line (GIBCO) and the transfected cells are plated on selective agar plates. Colonies without insertion of the fusion sequence into the viral genome (carried by the bacteria) are blue. Single white colonies are picked and viral DNA (bacmid) is isolated from the bacteria by standard plasmid purification procedures. Sf9 or Sf21 cells (American Type Culture Collection) are then transfected in flasks with the viral DNA using Cellfectin reagent. Determination of small scale protein expression in Sf9 cells: Virus containing media is collected from the transfected cell culture and used for infection to increase its titre. Virus containing media obtained after two rounds of infection is used for large-scale protein expression. For large-scale protein expression 100 cm^2 round tissue culture plates are seeded with 5×10^7 cells/plate and infected with 1 mL of virus-containing media (approx. 5 MOIs). After 3 days the cells are scraped off the plate and centrifuged at 500 rpm for 5 min. Cell pellets from 10-20, 100 cm^2 plates, are resuspended in 50 mL of ice-cold lysis buffer (25 mMTris-HCl, pH 7.5, 2 mM EDTA, 1% NP-40, 1 mM DTT, 1 mM PMSF). The cells are stirred on ice for 15 min and then centrifuged at 5000 rpms for 20 min. […]

c-Src kinase = c-Src kinase (Homo sapiens, UniProt P12931); assay: c-Src kinase inhibition; type: biochemical
Text: An appropriate assay is described in Andrejauskas-Buchdunger et al., Cancer Res. 52, 5353-8 (1992).

[1] = target: T2, human VEGF-R2 receptor (KDR) (Homo sapiens, UniProt P35968); assay: VEGF-induced KDR autophosphorylation in transfected CHO cells, sandwich ELISA; type: cell-based; conditions: Table 5; read-out: KDR, IC50 class
T2 construct: expressed in transfected cells; host or cells: CHO cells
Procedure: as §1

HER-1 = HER-1 (Homo sapiens, UniProt P00533); assay: HER-1 kinase inhibition; type: biochemical; conditions: Table 5; read-out: HER-1, IC50 class
[2] = Table 5, read-out: Flt-3, IC50 class
[3] = Table 5, read-out: c-scr, IC50 class

Chain of HER-1 (P00533 25-1210, species assumed): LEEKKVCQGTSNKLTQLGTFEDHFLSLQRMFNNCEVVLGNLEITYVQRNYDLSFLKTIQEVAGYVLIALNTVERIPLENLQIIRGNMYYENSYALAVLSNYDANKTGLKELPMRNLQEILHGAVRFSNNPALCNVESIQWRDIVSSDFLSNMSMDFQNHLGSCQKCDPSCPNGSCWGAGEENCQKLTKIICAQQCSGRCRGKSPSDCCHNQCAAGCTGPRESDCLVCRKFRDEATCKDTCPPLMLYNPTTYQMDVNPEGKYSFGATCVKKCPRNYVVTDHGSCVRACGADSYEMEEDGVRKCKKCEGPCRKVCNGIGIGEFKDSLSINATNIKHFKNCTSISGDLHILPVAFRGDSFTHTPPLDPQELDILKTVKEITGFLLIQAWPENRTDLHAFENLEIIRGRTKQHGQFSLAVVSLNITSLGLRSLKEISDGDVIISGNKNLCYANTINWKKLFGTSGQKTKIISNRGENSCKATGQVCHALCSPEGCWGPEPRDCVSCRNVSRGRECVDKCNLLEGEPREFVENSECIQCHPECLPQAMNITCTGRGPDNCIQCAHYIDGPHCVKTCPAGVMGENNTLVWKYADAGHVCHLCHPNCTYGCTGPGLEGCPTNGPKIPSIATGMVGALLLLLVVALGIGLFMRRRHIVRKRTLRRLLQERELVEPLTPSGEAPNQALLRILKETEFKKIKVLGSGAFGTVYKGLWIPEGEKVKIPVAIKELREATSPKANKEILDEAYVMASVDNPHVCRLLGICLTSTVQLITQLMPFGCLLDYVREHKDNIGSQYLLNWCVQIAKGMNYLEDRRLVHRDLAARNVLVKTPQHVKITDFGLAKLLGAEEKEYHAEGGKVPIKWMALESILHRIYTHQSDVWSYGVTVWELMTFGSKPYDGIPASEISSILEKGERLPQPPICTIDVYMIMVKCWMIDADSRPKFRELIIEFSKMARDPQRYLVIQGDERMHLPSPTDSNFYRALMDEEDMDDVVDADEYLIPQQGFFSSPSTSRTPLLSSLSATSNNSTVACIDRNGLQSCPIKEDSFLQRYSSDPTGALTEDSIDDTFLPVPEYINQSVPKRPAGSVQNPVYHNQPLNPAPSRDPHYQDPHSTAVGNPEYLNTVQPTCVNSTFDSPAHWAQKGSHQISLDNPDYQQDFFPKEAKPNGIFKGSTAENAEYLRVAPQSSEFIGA
T2 sequence (P35968 20-1356): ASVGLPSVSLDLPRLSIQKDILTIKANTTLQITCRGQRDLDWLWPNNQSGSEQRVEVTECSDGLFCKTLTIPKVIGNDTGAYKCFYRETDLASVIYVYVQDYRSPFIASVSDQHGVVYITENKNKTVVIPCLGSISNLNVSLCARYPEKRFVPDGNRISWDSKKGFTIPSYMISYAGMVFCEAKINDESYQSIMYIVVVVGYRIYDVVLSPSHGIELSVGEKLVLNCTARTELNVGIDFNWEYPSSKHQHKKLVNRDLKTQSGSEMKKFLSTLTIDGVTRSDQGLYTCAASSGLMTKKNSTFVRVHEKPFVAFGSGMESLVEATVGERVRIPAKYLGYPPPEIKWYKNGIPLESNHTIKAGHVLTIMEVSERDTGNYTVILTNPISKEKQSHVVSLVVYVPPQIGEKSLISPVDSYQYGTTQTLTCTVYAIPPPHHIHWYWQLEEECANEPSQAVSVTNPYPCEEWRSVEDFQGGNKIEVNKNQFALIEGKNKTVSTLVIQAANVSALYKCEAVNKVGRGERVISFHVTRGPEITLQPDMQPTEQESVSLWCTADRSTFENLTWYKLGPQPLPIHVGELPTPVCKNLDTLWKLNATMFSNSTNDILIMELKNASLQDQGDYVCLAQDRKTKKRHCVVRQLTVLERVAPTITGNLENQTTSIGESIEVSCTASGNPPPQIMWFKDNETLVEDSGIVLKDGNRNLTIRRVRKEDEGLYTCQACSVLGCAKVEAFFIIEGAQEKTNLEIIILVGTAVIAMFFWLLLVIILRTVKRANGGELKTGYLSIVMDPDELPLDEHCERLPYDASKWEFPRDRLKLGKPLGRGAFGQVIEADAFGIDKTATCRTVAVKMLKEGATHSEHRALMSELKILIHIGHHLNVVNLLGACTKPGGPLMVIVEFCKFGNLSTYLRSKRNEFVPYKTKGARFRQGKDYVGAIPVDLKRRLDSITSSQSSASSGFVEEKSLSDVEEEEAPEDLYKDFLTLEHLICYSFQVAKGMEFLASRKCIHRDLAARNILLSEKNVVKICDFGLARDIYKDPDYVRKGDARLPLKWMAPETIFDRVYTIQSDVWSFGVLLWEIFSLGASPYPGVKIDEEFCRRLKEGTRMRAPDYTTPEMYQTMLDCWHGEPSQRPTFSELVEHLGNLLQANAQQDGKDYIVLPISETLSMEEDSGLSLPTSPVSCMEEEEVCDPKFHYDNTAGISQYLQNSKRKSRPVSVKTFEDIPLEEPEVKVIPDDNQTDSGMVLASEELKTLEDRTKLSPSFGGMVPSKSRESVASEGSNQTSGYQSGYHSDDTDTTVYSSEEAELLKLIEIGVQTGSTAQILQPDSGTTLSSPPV
Chain of c-Src kinase (P12931 whole entry): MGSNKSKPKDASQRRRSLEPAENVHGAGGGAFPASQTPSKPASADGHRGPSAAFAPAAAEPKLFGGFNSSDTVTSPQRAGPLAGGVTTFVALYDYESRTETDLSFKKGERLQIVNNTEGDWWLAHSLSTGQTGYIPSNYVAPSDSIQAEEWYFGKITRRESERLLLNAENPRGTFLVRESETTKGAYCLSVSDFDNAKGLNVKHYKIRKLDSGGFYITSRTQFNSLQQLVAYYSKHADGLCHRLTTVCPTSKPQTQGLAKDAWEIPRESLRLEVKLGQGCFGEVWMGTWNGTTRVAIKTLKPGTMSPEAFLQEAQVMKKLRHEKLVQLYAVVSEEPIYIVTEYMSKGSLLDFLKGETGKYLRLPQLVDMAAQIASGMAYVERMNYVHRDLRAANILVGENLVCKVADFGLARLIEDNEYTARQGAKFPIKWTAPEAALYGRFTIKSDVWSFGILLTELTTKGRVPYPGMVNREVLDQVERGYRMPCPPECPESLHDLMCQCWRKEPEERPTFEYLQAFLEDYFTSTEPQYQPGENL

## CN1CCN(c2cccc(-c3cnn4c(N)c(-c5ccc(O)cc5)cnc34)c2)CC1 [Example 39, 4-{7-Amino-3-[3-(4-methyl-piperazin-1-yl)-phenyl]-pyrazolo[1,5-a]pyrimidin-6-yl}-phenol]
Human Flt-3; Table 4, read-out: Flt-3, activity (IC50 for kinase inhibition)
  IC50: < 10 µM

## COc1ccccc1-c1cnn2c(N)c(-c3cccc(O)c3)cnc12 [Example 48, 3-[7-Amino-3-(2-methoxy-phenyl)-pyrazolo[1,5-a]pyrimidin-6-yl]-phenol]
c-Src kinase; Table 4, read-out: s-Scr, activity (IC50 for kinase inhibition)
  IC50: < 10 µM

## Cc1nc2c(-c3cccc(N4CCN(C)CC4)c3)cnn2c(N)c1-c1cccc(Cl)c1 [Example 72, 6-(3-Chloro-phenyl)-5-methyl-3-[3-(4-methyl-piperazin-1-yl)-phenyl]-pyrazolo[1,5-a]pyrimidin-7-ylamine]
Human Flt-3; [2]
  IC50: > 10 µM
[1]
  IC50: < 1 µM
c-Src kinase; [3]
  IC50: < 1 µM
HER-1
  IC50: 1 to 10 µM
other
  melting point: 110 to 115 °C

## Cc1nc2c(-c3ccc(N4CCN(C)CC4)cc3)cnn2c(N)c1-c1cccc(Cl)c1 [Example 73, 6-(3-Chloro-phenyl)-5-methyl-3-[4-(4-methyl-piperazin-1-yl)-phenyl]-pyrazolo[1,5-a]pyrimidin-7-ylamine]
Human Flt-3; [2]
  IC50: > 10 µM
[1]
  IC50: < 1 µM
c-Src kinase; [3]
  IC50: < 1 µM
HER-1
  IC50: 1 to 10 µM
other
  melting point: 113 to 115 °C

## COc1cc(N2CCN(C)CC2)ccc1-c1cnn2c(N)c(-c3cccc(Cl)c3)c(C)nc12 [Example 75, 6-(3-Chloro-phenyl)-3-[2-methoxy-4-(4-methyl-piperazin-1-yl)-phenyl]-5-methyl-pyrazolo[1,5-a]pyrimidin-7-ylamine]
[1]
  IC50: 1 to 10 µM
other
  melting point: 215 to 217 °C

## COc1cc(N2CCN(C)CC2)ccc1-c1cnn2c(N)c(-c3cccc(O)c3)cnc12 [Example 76, 3-{7-Amino-3-[2-methoxy-4-(4-methyl-piperazin-1-yl)-phenyl]-pyrazolo[1,5-a]pyrimidin-6-yl}-phenol]
Human Flt-3; [2]
  IC50: < 1 µM
[1]
  IC50: < 1 µM
HER-1
  IC50: < 1 µM
other
  melting point: 217 to 220 °C

## CN1CCN(c2ccc(-c3cnn4c(N)c(-c5ccccc5Cl)cnc34)cc2)CC1 [Example 77, 6-(2-Chloro-phenyl)-3-[4-(4-methyl-piperazin-1-yl)-phenyl]-pyrazolo[1,5-a]pyrimidin-7-ylamine]
Human Flt-3; [2]
  IC50: < 1 µM
[1]
  IC50: < 1 µM
other
  melting point: 197 to 200 °C

## CN1CCN(c2cccc(-c3cnn4c(N)c(-c5ccccc5Cl)cnc34)c2)CC1 [Example 78, 6-(2-Chloro-phenyl)-3-[3-(4-methyl-piperazin-1-yl)-phenyl]-pyrazolo[1,5-a]pyrimidin-7-ylamine]
Human Flt-3; [2]
  IC50: < 1 µM
[1]
  IC50: < 1 µM
other
  melting point: 200 to 203 °C

## Cc1nc2c(-c3ccc(N4CCN(C)CC4)cc3)cnn2c(N)c1-c1ccc(F)cc1 [Example 79, 6-(4-Fluoro-phenyl)-5-methyl-3-[4-(4-methyl-piperazin-1-yl)-phenyl]-pyrazolo[1,5-a]pyrimidin-7-ylamine]
Human Flt-3; [2]
  IC50: > 10 µM
[1]
  IC50: 1 to 10 µM
c-Src kinase; [3]
  IC50: < 1 µM
HER-1
  IC50: 1 to 10 µM
other
  melting point: 289 to 291 °C

## Cc1nc2c(-c3cccc(N4CCN(C)CC4)c3)cnn2c(N)c1-c1ccc(F)cc1 [Example 80, 6-(4-Fluoro-phenyl)-5-methyl-3-[3-(4-methyl-piperazin-1-yl)-phenyl]-pyrazolo[1,5-a]pyrimidin-7-ylamine]
Human Flt-3; [2]
  IC50: 1 to 10 µM
[1]
  IC50: 1 to 10 µM
c-Src kinase; [3]
  IC50: < 1 µM
HER-1
  IC50: > 10 µM
other
  melting point: 204 to 206 °C

## Cc1nc2c(-c3cccc(N4CCN(C5CCN(C)CC5)CC4)c3)cnn2c(N)c1-c1cccc(Cl)c1 [Example 81, 6-(3-Chloro-phenyl)-5-methyl-3-{3-[4-(1-methyl-piperidin-4-yl)-piperazin-1-yl]-phenyl}-pyrazolo[1,5-a]pyrimidin-7-ylamine]
Human Flt-3; [2]
  IC50: > 10 µM
[1]
  IC50: < 1 µM
c-Src kinase; [3]
  IC50: < 1 µM
HER-1
  IC50: > 10 µM
other
  melting point: 180 to 185 °C

## Cc1nc2c(-c3cccc(N4CCN(C)CC4)c3)cnn2c(N)c1-c1ccc(F)c(Cl)c1 [Example 82, 6-(3-Chloro-4-fluoro-phenyl)-5-methyl-3-[3-(4-methyl-piperazin-1-yl)-phenyl]pyrazolo[1,5-a]pyrimidin-7-ylamine]
Human Flt-3; [2]
  IC50: > 10 µM
[1]
  IC50: > 10 µM
c-Src kinase; [3]
  IC50: < 1 µM
HER-1
  IC50: > 10 µM
other
  melting point: 224 to 226 °C

## Cc1nc2c(-c3ccc(N4CCN(C)CC4)cc3)cnn2c(N)c1-c1ccc(F)c(Cl)c1 [Example 83, 6-(3-Chloro-4-fluoro-phenyl)-5-methyl-3-[4-(4-methyl-piperazin-1-yl)-phenyl]-pyrazolo[1,5-a]pyrimidin-7-ylamine]
Human Flt-3; [2]
  IC50: > 10 µM
[1]
  IC50: > 10 µM
c-Src kinase; [3]
  IC50: < 1 µM
HER-1
  IC50: > 10 µM
other
  melting point: 264 to 265 °C

## Cc1nc2c(-c3cccc(N4CCN(C)CC4)c3)cnn2c(N)c1-c1cccc(Br)c1 [Example 84, 6-(3-Bromo-phenyl)-5-methyl-3-[3-(4-methyl-piperazin-1-yl)-phenyl]-pyrazolo[1,5-a]pyrimidin-7-ylamine]
Human Flt-3; [2]
  IC50: > 10 µM
[1]
  IC50: 1 to 10 µM
c-Src kinase; [3]
  IC50: < 1 µM
HER-1
  IC50: > 10 µM
other
  melting point: 107 to 113 °C

## COc1ccc(-c2cnn3c(N)c(-c4cccc(Cl)c4)c(CF)nc23)cc1OC [Example 92, 6-(3-Chloro-phenyl)-3-(3,4-dimethoxy-phenyl)-5-fluoromethyl-pyrazolo[1,5-a]pyrimidin-7-ylamine]
Human Flt-3; [2]
  IC50: > 10 µM
[1]
  IC50: 1 to 10 µM
HER-1
  IC50: > 10 µM
other
  melting point: 228 to 230 °C

## Cc1nc2c(-c3cccc(N4CC[N+](C)([O-])CC4)c3)cnn2c(N)c1-c1ccc(F)cc1 [Example 106, 6-(4-Fluoro-phenyl)-5-methyl-3-[3-(4-methyl-4-oxy-piperazin-1-yl)-phenyl]-pyrazolo[1,5-a]pyrimidin-7-ylamine]
Human Flt-3; [2]
  IC50: > 10 µM
[1]
  IC50: > 10 µM
c-Src kinase; [3]
  IC50: < 1 µM
HER-1
  IC50: > 10 µM

## Cc1nc2c(-c3cccc([N+]4([O-])CC[N+](C)([O-])CC4)c3)cnn2c(N)c1-c1ccc(F)cc1 (stereo not drawn) [Example 107, 6-(4-Fluoro-phenyl)-5-methyl-3-[3-(4-methyl-1,4-dioxy-piperazin-1-yl)-phenyl]-pyrazolo[1,5-a]pyrimidin-7-ylamine]
Human Flt-3; [2]
  IC50: > 10 µM
[1]
  IC50: > 10 µM
c-Src kinase; [3]
  IC50: < 1 µM
HER-1
  IC50: > 10 µM
